Values of other authors as cited in patent US20210015755A1, “SECNIDAZOLE SOFT GELATIN CAPSULE AND METHODS AND USES THEREOF” (Lupin Inc., priority 2019, published 2021).

Experiments:
[1] = system: bacterial vaginosis

SMILES	excreted intact in the urine (in vivo)	absorption after oral administration (oral administration)	effectiveness in the treatment of bacterial vaginosis ([1]; 500 mg ovule formulation versus 37.5 mg metronidazole gel (Sanchez et al.))	cure rates ([1]; intravaginal 750 mg ovule formulation versus 500 mg ovule composition (Aguin et al.))
Cc1ncc([N+](=O)[O-])n1CC(C)O (stereo not shown) [Secnidazole, 1-(2-hydroxypropyl)-2-methyl-5-nitromidazole]	50%	rapidly and completely absorbed		
Cc1ncc([N+](=O)[O-])n1CCO [metronidazole]			significantly more effective	higher cure rates
